Test results as given in PubChem BioAssay AID2060500 (Molecular Pharmacology Branch, DTP, NCI, 2025).

Tested on: 596521-263-R-J1-PDC complex spheroids, viability % of control
Experiment: Anticancer human tumor 596521-263-R-J1-PDC patient-derived soft tissue sarcoma cell line growth inhibition [GQUAD]
Conditions: for IC50: curve of first compound; for viability, T/C: stronger effect = lower value
Summary of the method: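 Tumor cells were grown as complex spheroids with HUVEC endothelial cells and mesenchymal stem cells as stroma. G-quadruplex stabilizers were combined with targeted agents over half-log dilutions from near the clinical Cmax, or from 10 microM.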

[1] = second compound 0.0316 µM, first compound 0.0316 µM
[2] = second compound 0.0316 µM, first compound 0.1 µM
[3] = second compound 0.0316 µM, first compound 0.316 µM
[4] = second compound 0.0316 µM, first compound 1 µM
[5] = second compound 0.0316 µM, first compound 3.16 µM
[6] = second compound 0.0316 µM, first compound 10 µM
[7] = second compound 0.1 µM, first compound 0.0316 µM
[8] = second compound 0.1 µM, first compound 0.1 µM
[9] = second compound 0.1 µM, first compound 0.316 µM
[10] = second compound 0.1 µM, first compound 1 µM
[11] = second compound 0.1 µM, first compound 3.16 µM
[12] = second compound 0.1 µM, first compound 10 µM
[13] = second compound 0.316 µM, first compound 0.0316 µM
[14] = second compound 0.316 µM, first compound 0.1 µM
[15] = second compound 0.316 µM, first compound 0.316 µM
[16] = second compound 0.316 µM, first compound 1 µM
[17] = second compound 0.316 µM, first compound 3.16 µM
[18] = second compound 0.316 µM, first compound 10 µM
[19] = second compound 1 µM, first compound 0.0316 µM
[20] = second compound 1 µM, first compound 0.1 µM
[21] = second compound 1 µM, first compound 0.316 µM
[22] = second compound 1 µM, first compound 1 µM
[23] = second compound 1 µM, first compound 3.16 µM
[24] = second compound 1 µM, first compound 10 µM
[25] = second compound 3.16 µM, first compound 0.0316 µM
[26] = second compound 3.16 µM, first compound 0.1 µM
[27] = second compound 3.16 µM, first compound 0.316 µM
[28] = second compound 3.16 µM, first compound 1 µM
[29] = second compound 3.16 µM, first compound 3.16 µM
[30] = second compound 3.16 µM, first compound 10 µM
[31] = second compound 10 µM, first compound 0.0316 µM
[32] = second compound 10 µM, first compound 0.1 µM
[33] = second compound 10 µM, first compound 0.316 µM
[34] = second compound 10 µM, first compound 1 µM
[35] = second compound 10 µM, first compound 3.16 µM
[36] = second compound 10 µM, first compound 10 µM
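Further: spheroids exposed to drugs for 7 days before viability reading.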
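Wherever viability, T/C is given: 100% = DMSO vehicle control viability.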

For C=CC(=O)N1CCN(c2nc(=O)n(-c3c(C)ccnc3C(C)C)c3nc(-c4c(O)cccc4F)c(F)cc23)C(C)C1 (stereo unspecified) + Cc1[nH]c2ccc(F)cc2c1-c1nc2c3cccnc3c3ncccc3c2[nH]1, the IC50 (second compound 0.0316 µM) was > 10 µM, the IC50 (second compound 0.1 µM) was > 10 µM and the IC50 (second compound 0.316 µM) was > 10 µM. For the same molecule, the IC50 (second compound 1 µM) was > 10 µM, the IC50 (second compound 3.16 µM) was > 10 µM and the IC50 (second compound 10 µM) was > 10 µM. It also gave a viability, T/C [1] of 91.6%, a viability, T/C [2] of 102% and a viability, T/C [3] of 98%. It also gave a viability, T/C [4] of 100%, a viability, T/C [5] of 103% and a viability, T/C [6] of 69.3%. The viability, T/C [7] was 97%, the viability, T/C [8] was 97.1% and the viability, T/C [9] was 95.2%. It also gave a viability, T/C [10] of 107%, a viability, T/C [11] of 90.8% and a viability, T/C [12] of 67.8%. The viability, T/C [13] was 91.5%, the viability, T/C [14] was 108% and the viability, T/C [15] was 89.5%. The viability, T/C [16] was 99.7%, the viability, T/C [17] was 89.8% and the viability, T/C [18] was 67%. The viability, T/C [19] was 95.6%, the viability, T/C [20] was 82.5% and the viability, T/C [21] was 99.8%. It also gave a viability, T/C [22] of 97.5%, a viability, T/C [23] of 90.8% and a viability, T/C [24] of 75.8%. The viability, T/C [25] was 90.7%, the viability, T/C [26] was 88.2% and the viability, T/C [27] was 91.9%. For the same molecule, the viability, T/C [28] was 95.1%, the viability, T/C [29] was 90.8% and the viability, T/C [30] was 73.3%. It also gave a viability, T/C [31] of 71%, a viability, T/C [32] of 72% and a viability, T/C [33] of 83.1%. It also gave a viability, T/C [34] of 72.1%, a viability, T/C [35] of 85.3% and a viability, T/C [36] of 56.4%.
With CC(C)n1c(=O)n(C)c2cnc3cc(F)c(-c4ccc(OCCCN5CCCCC5)nc4)cc3c21 + Cc1[nH]c2ccc(F)cc2c1-c1nc2c3cccnc3c3ncccc3c2[nH]1 the IC50 (second compound 0.0316 µM) was > 10 µM, the IC50 (second compound 0.1 µM) was > 10 µM and the IC50 (second compound 0.316 µM) was > 10 µM. The IC50 (second compound 1 µM) was > 10 µM, the IC50 (second compound 3.16 µM) was > 10 µM and the IC50 (second compound 10 µM) was > 10 µM. For the same molecule, the viability, T/C [1] was 100%, the viability, T/C [2] was 82.2% and the viability, T/C [3] was 81.5%. It also gave a viability, T/C [4] of 87.1%, a viability, T/C [5] of 80% and a viability, T/C [6] of 73.4%. It also gave a viability, T/C [7] of 95%, a viability, T/C [8] of 112% and a viability, T/C [9] of 91%. It also gave a viability, T/C [10] of 93.9%, a viability, T/C [11] of 86% and a viability, T/C [12] of 64.9%. For the same molecule, the viability, T/C [13] was 106%, the viability, T/C [14] was 102% and the viability, T/C [15] was 91.4%. The viability, T/C [16] was 83.7%, the viability, T/C [17] was 81.9% and the viability, T/C [18] was 57.6%. The viability, T/C [19] was 85%, the viability, T/C [20] was 89% and the viability, T/C [21] was 97%. It also gave a viability, T/C [22] of 89.4%, a viability, T/C [23] of 86.8% and a viability, T/C [24] of 72.1%. The viability, T/C [25] was 87.9%, the viability, T/C [26] was 90.3% and the viability, T/C [27] was 81.4%. The viability, T/C [28] was 76.3%, the viability, T/C [29] was 80.6% and the viability, T/C [30] was 53%. The viability, T/C [31] was 74.4%, the viability, T/C [32] was 78.6% and the viability, T/C [33] was 79.8%. For the same molecule, the viability, T/C [34] was 79.1%, the viability, T/C [35] was 62.1% and the viability, T/C [36] was 50.7%.
Molecule CC1COCCN1c1cc(-c2ccnn2C)c2ccnc(-c3ccn[nH]3)c2n1 (stereo unspecified) + Cc1[nH]c2ccc(F)cc2c1-c1nc2c3cccnc3c3ncccc3c2[nH]1 has an IC50 (second compound 0.0316 µM) of 0.395 µM, an IC50 (second compound 0.1 µM) of 0.51 µM and an IC50 (second compound 0.316 µM) of 0.317 µM. It also gave an IC50 (second compound 1 µM) of 0.553 µM, an IC50 (second compound 3.16 µM) of 0.602 µM and an IC50 (second compound 10 µM) of 0.289 µM. For the same molecule, the viability, T/C [1] was 84.3%, the viability, T/C [2] was 61.8% and the viability, T/C [3] was 55.6%. For the same molecule, the viability, T/C [4] was 40.1%, the viability, T/C [5] was 32.5% and the viability, T/C [6] was 26%. It also gave a viability, T/C [7] of 81.3%, a viability, T/C [8] of 69.5% and a viability, T/C [9] of 52%. The viability, T/C [10] was 41.8%, the viability, T/C [11] was 37.9% and the viability, T/C [12] was 23.2%. It also gave a viability, T/C [13] of 75.9%, a viability, T/C [14] of 57.2% and a viability, T/C [15] of 50%. The viability, T/C [16] was 43.2%, the viability, T/C [17] was 31.8% and the viability, T/C [18] was 25.3%. It also gave a viability, T/C [19] of 71%, a viability, T/C [20] of 62.5% and a viability, T/C [21] of 57.1%. It also gave a viability, T/C [22] of 43.5%, a viability, T/C [23] of 34.3% and a viability, T/C [24] of 26%. It also gave a viability, T/C [25] of 67.3%, a viability, T/C [26] of 62.4% and a viability, T/C [27] of 53.2%. The viability, T/C [28] was 47.8%, the viability, T/C [29] was 36.3% and the viability, T/C [30] was 26.1%. For the same molecule, the viability, T/C [31] was 64.5%, the viability, T/C [32] was 57% and the viability, T/C [33] was 49.6%. For the same molecule, the viability, T/C [34] was 40.9%, the viability, T/C [35] was 32.9% and the viability, T/C [36] was 25.4%.
